Experimental data as given in patent US20100015111A1, “Methods And Kits For The Treatment Inhibition, And Maintenance Of Gastrointestinal Disorders” (priority 2008, published 2010).

System: dextran sulfate salt (DSS) induced chronic ulcerative colitis in male Swiss-Webster mice
Assay: Olsalazine on dextran sulfate salt (DSS) induced chronic ulcerative colitis in mice
Assay type: in vivo
Conditions: for survival to necropsy day: 3% DSS days 0-14, 15% in disease controls; for mean body weight loss at study end: 3% DSS, disease control lost 3.90 g; for colon content score (mean, scale 0-3) / mean colon length / inhibition of decreased colon length: day 14; for colon content score (mean, scale 0-3): disease control mean 2.67; for mean colon length: normal 10.60, disease control 6.33; for inhibition of decreased colon length: vs disease control
Experimental: A study was conducted to determine the effect of Olsalazine on dextran sulfate salt (DSS) induced chronic ulcerative colitis in male Swiss-Webster mice. Groups of 20 male Swiss-Webster mice were allowed ad libitum access to Olsalazine qd beginning on day −3 and then continued daily (qd) or every two days (q2d) starting on day 0 and continuing through day 14. Dipentum®, Olsalazine Sodium is a sodium salt of salicylate, disodium 3,3′-azobis(6-hydroxybenzoate) and when exposed to colonic bacteria converts to mesalamine. In this animal model, male Swiss-Webster mice are exposed to DSS (3% days 0-14) to induce inflammation and gland loss with erosion in the colon.
Dextran sulfate, molecular weight 40-50,000 (sodium salt, Spectrum Chemicals, New Brunswick, N.J., Lot#RA1107) was stored at room temperature until added to appropriate volumes of tap water to prepare sufficient 3% DSS solutions. Prepared solutions were stored at 4° C. and added to water bottles daily. Every 3rd day, water in all bottles was discarded and replaced with fresh DSS preparations or tap water (normal controls). Dipentum® (Olsalazine Sodium) was received from the sponsor in hard gelatin capsule form. Capsules were received and each capsule contained 250 mg. On study day −3, 51 capsules were opened (˜12.75 grams) and the contents of each were consolidated into a labeled vial. Appropriate amounts of the beige-orange compound was then added to 250 ml water bottles so that each bottle would contain ˜0.83 mg/ml Olsalazine suspension in the water.
• Male Swiss-Webster mice weighing approximately 22-29 grams on day (−)3 were obtained from Harlan, Inc (Indianapolis, Ind.). Animals were identified by color-coded dots at the base of the tail delineating group and animal number. After randomization, all cages were labeled with protocol number, group and animal numbers with appropriate color-coding.
Animals (5/group/normal control, 20/group for diseased treated), housed 5/cage, were given 3.0% DSS in their water from test days 0-14. Olsalazine treatment was initiated on day −3 and continued daily through day 14, or on days −3, −2, −1, 0, 2, 4, 6, 8, 10, 12, and 14 for the q2d group. Animals were terminated on day 14. • Experimental groups were as follows:
Animals were weighed on study days −3 to 14. On day 14 mice were weighed, euthanized, and the entire colon was removed and the length determined. The colons were scored for gross changes using the following criteria:
0=normal, no blood observed
2=semi-solid to fluid stool
3=semi-solid with definite evidence of blood, bloody fluid or no content
Only animals that survived to study termination were included in the analysis of terminal colon lengths and scores.
For each surviving animal, the entire colon (proximal and distal) was trimmed into 8 equally spaced pieces for processing and embedding. Sections were stained with hemotoxylin and eosin (H&E). For each colon section, submucosal edema was quantified by measuring the distance (mm) from the muscularis mucosa to the internal border of the outer muscle layer in representative areas of edema. The extent of inflammation (foamy macrophages, lymphocytes and polymorphonuclear cell infiltrate) was assigned severity scores according to the following ranking:
The parameters reflecting epithelial cell loss/damage were scored individually using a percent area involved scoring method:
Parameters that were scored using the above percent involvement scale include: • 1) Colon glandular loss—includes crypt epithelial as well as remaining gland epithelial loss. • 2) Colon erosion—reflects loss of surface epithelium and generally is associated with mucosal hemorrhage (seen clinically and at necropsy).
Mucosal epithelial hyperplasia (basophilia, mitotic figures, multi-layered on basement membranes, absence of goblet cells) was scored 0-5 based on the following criteria […]

[1] = Olsalazine ad libitum, q2d, compared to disease controls
[2] = Olsalazine ad libitum, q2d, histopathology day 14, non significant
[3] = Olsalazine ad libitum, qd, histopathology day 14
[4] = Olsalazine ad libitum, qd, histopathology day 14, non significant
[5] = Olsalazine ad libitum, qd, histopathology day 14, significant

**Q.** What does the source list for O=C([O-])c1cc(N=Nc2ccc(O)c(C(=O)[O-])c2)ccc1O.[Na+].[Na+] [Olsalazine, disodium 3,3′-azobis(6-hydroxybenzoate)]?
**A.** survival to necropsy day (Olsalazine ad libitum in water (~0.83 mg/ml), every day (qd), day -3 to 14): 75%; survival to necropsy day (Olsalazine ad libitum, every other day (q2d): days -3,-2,-1,0,2,...14): 50%; mean body weight loss at study end (Olsalazine ad libitum, q2d): 3.10 g; inhibition of mean hyperplasia score [1]: 11%; inhibition of mucosal thickness [1]: 17%; colon content score (mean, scale 0-3) (Olsalazine ad libitum, q2d): 2.70; mean colon length (Olsalazine ad libitum, q2d): 7.1 cm; inhibition of decreased colon length (Olsalazine ad libitum, q2d): 18%; inhibition of colon gland loss (Olsalazine ad libitum, q2d, histopathology day 14): 32%; inhibition of colon edema [2]: 21%; inhibition of colon erosion [2]: 27%; inhibition of colon inflammation [2]: 27%; inhibition of sum colon histopathologic score [2]: 29%; mean body weight loss at study end (Olsalazine ad libitum, qd): 4.78 g; inhibition of mean hyperplasia score (Olsalazine ad libitum, qd, compared to disease control): 16%; colon content score (mean, scale 0-3) (Olsalazine ad libitum, qd): 2.33; mean colon length (Olsalazine ad libitum, qd): 7.33 cm; inhibition of decreased colon length (Olsalazine ad libitum, qd): 23%; inhibition of colon erosion [3]: 32%; inhibition of increase of mucosal thickness [3]: 32%; inhibition of colon edema [4]: 22%; inhibition of sum colon histopathologic score [4]: 35%; inhibition of colon gland loss [5]: 32%; inhibition of colon inflammation [5]: 33%
